# Data from PubChem BioAssay (NCI).
# Values joined by “and” are separate entries in the source; they are usually repeats but may differ in a detail not shown here. Identical values can stand only once.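 The compound was tested at five concentrations on cells cultured in 96-well plates, with a 48-hour exposure period. GI50 = concentration required for 50% inhibition of growth. TGI marks complete inhibition of growth.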
# Assays:
# Assay in all cases: DTP human tumour cell line panel, 48 h
# [1] = tested on: DMS 114 small cell lung
# [2] = tested on: OVCAR-8 ovarian
# [3] = tested on: SK-OV-3 ovarian
# [4] = tested on: KM20L2 colon
# [5] = tested on: SF-268 CNS
# [6] = tested on: RXF 393 renal
# [7] = tested on: HCT-15 colon
# [8] = tested on: CCRF-CEM leukemia
# [9] = tested on: HCC-2998 colon
# [10] = tested on: LXFL 529 NSCLC
# [11] = tested on: M19-MEL melanoma
# [12] = tested on: MDA-MB-231 breast
Compound,TGI [1] [µM],TGI [2] [µM],TGI [3] [µM],TGI [4] [µM],TGI [5] [µM],TGI [6] [µM],TGI [7] [µM],TGI [8],TGI [9] [µM],TGI [10] [µM],TGI [11] [µM],GI50 [12] [µM],TGI [12] [µM],GI50 [2] [µM],GI50 [3] [µM],GI50 [5] [µM],GI50 [6] [µM],GI50 [7] [µM],GI50 [8] [µM],GI50 [9] [µM]
CC(=O)NC1C(OCc2ccccc2)OC(CO)C(O)C1OC(C)C(=O)N[C@@H](C)C(=O)N[C@H](CCC(=O)OCCNc1c2ccccc2nc2cccc([N+](=O)[O-])c12)C(N)=O (stereo not given in full),0.00839,0.028,0.0288,0.00247,0.0343,0.00304,0.00156,> 0.1 µM and 0.0189 µM,0.00378,0.00267,–,–,–,–,–,–,–,–,–,–
Nc1c(O)cc(N=C2C(=O)C=CC=C2C(=O)O)c(O)c1C(=O)O,> 100,> 100,> 100,> 100,–,> 31.6,> 100,–,> 31.6,> 100,37.9,–,–,–,–,–,–,–,–,–
COC(=O)/C(=N/Nc1cccc(Cl)c1)C(C(=O)C(=O)Nc1cccc(Cl)c1C)c1nc2ccccc2nc1C (stereo not given),> 100,> 100,> 100,> 100,> 100,> 100,–,> 100 µM,> 100,–,> 100,–,–,–,–,–,–,–,–,–
Cc1noc2c1C(=O)CCC2,> 100,> 100,> 100,> 100,> 100,> 100,–,> 100 µM,–,> 100,> 100,–,–,–,–,–,–,–,–,–
COC(=O)CCC1CCc2c(OC)ccc(OC)c2C1=O (stereo not given),> 100,> 100,> 100,> 100,> 100,> 100,> 100,> 100 µM,> 100,> 100,–,–,–,–,–,–,–,–,–,–
COc1ccc2c(c1)CC[C@@H]1[C@@H]2CC[C@]2(C)[C@@H](NC(=O)/C=C/c3ccc(O)c(O)c3)CC[C@@H]12,–,16.7,27.1,–,11,46,15.4,6.67 µM,4.19,–,–,2.6,15.2,4.2,11.5,2.66,7.94,3.2,0.731,2.05
FC(F)(F)c1ccc(-c2cnc(-n3cc(COCCN4CCCCC4)nn3)nc2NC2CCCCCC2)cc1,–,8.74,7.62,–,7.87,5.67,8.66,10.7 µM,7.44,–,–,3.47,6.86,4.12,4.04,3.98,2.51,4.02,4.23,3.93
Cc1nnc2c3nnc(C)n3c3ccccc3n12,> 100,> 100,> 100,> 100,> 100,> 100,> 100,> 100 µM,> 100,> 100,–,–,–,–,–,–,–,–,–,–
Cc1ccc(C(NC(=O)c2ccccc2)c2ccc3cccnc3c2O)cc1 (stereo not given),–,25.1,30.7,–,> 48.4,1.58,> 91.2,–,18.5,–,–,0.315,22.4,0.306,0.474,0.266,0.252,0.24,0.0783,0.331
COc1cc2c(cc1OC)C(Sc1ccc(SC)cc1)c1c(nc(N)c(C#N)c1N)O2 (stereo not given),–,3.47,3.31,–,3.1,2.52,2.91,4.28 µM,3.28,–,–,1.55,2.92,1.93,1.88,1.6,1.25,1.44,0.571,1.8
Clc1ccc(-c2nnc(-c3cccc4ccccc34)o2)cc1Cl,–,> 100,> 100,–,> 100,> 100,> 100,> 100 µM,> 100,–,–,–,> 100,–,–,–,–,–,–,–
CCCCCCCCCCCCCCCCNCCCN(C)CCCN,35.1,38.5,34.6,32.7,34.9,–,32.7,–,33.4,33.2,41.3,–,–,–,–,–,–,–,–,–
O=[N+]([O-])c1ccc(-c2noc(-c3ccc(Cl)cc3)c2C2=NCCN2)cc1,–,> 100,–,> 100,> 100,> 100,> 100,> 100 µM,> 100,> 100,> 100,–,–,–,–,–,–,–,–,–
CCN(Cc1ccc(F)cc1)c1ccc(CO)c(C)c1,–,38.4,41.5,–,> 58.9,23.3,39.4,59.2 µM,29.4,–,–,16.6,35.7,11.9,8.91,24.9,8.47,8.86,19.7,14.6
C=C1C(=O)O[C@H]2[C@H]1CC/C(COC(=O)CCSCCC(=O)OC/C1=C/CC[C@@]3(C)O[C@H]3[C@H]3OC(=O)C(=C)[C@@H]3CC1)=C\CC[C@@]1(C)O[C@@H]21,–,3.96,13.8,–,4.54,2.15,2.46,1.25 µM,3.52,–,–,1.09,2.55,1.57,4.1,1.63,0.767,1.11,0.314,1.89
COc1cccc(/C=N/NC(=S)NC2CC3CCC2C3)c1O (stereo not given),–,18.5,14.4,–,21.5,28.1,> 100,38.7 µM,> 100,–,–,4.88,21.9,5.2,4.46,5.84,13,1.07,6.65,80.4
Nc1nc(N)c(C=Nc2ccc(Br)cc2)c(Nc2ccc(Br)cc2)n1,–,40.7,28.4,–,27.1,13.6,34.4,26.2 µM,14,–,–,7.36,28.3,15.2,15.1,8.16,2.89,7.44,9.3,3.89
Cc1cc2cc3ccc(N(C)C)cc3nc2cc1N,–,2.36,3.35,–,2.32,1.34,17.8,10.7 µM,1.34,–,–,1.12,2.88,0.374,0.552,0.611,0.41,1.4,0.772,0.33
CC(C)N1CCN(Cc2ccc3c(NNC(=O)c4ccccc4)nc4cc(F)ccc4n23)CC1,–,27.4,15.3,–,12.7,8.87,3.91,4.09 µM,6.45,–,–,0.497,2.48,0.381,0.338,0.355,0.792,0.0563,0.146,0.699
CN(C)c1ccc(/C=C/c2ccc(/C=C/c3ccc(N(C)C)cc3)cc2)cc1,–,> 100,> 100,> 100,> 100,> 100,> 100,> 100 µM,> 100,> 100,> 100,–,–,–,–,–,–,–,–,–
CCCCC(C)C(OC(=O)CC(CC(=O)O)C(=O)O)C(CC(C)CC(O)CCCCC(O)CC(O)C(C)N)OC(=O)CC(CC(=O)O)C(=O)O (stereo not given),–,> 100,> 100,> 100,> 100,> 100,> 100,> 100 µM,> 100,> 100,> 100,–,–,–,–,–,–,–,–,–
COc1cccc(-c2ccc3c(c2)C2CCN(Cc4ccccc4)C3C2)c1 (stereo not given),–,32.5,48.8,–,34.4,24.6,19.7,56.1 µM,33.5,–,–,5.61,19,11.2,14.8,12.3,10.1,4.86,9.67,13.6
O=S(=O)(O)c1ccc(N=Nc2nc(C(F)(F)F)c(C(F)(F)F)[nH]2)cc1,30.5,> 100,> 100,> 100,> 100,32.9,> 100,> 100 µM,–,> 100,> 100,–,–,–,–,–,–,–,–,–
CCOc1cc(Br)c(C(C)NC(=O)c2cccc(OC)c2)cc1OCC (stereo not given),–,> 100,> 100,–,> 100,> 100,> 100,> 100 µM,> 100,–,–,8.59,> 100,25.6,23.1,22.9,12.6,5.82,13.6,33.7
O=C(O)c1cn(C2CC2)c2cc(N3CCN(C(=O)Nc4nc(-c5ccccc5)cs4)CC3)c(F)cc2c1=O,–,49.2,7.38,–,> 100,26.3,> 100,> 100 µM,> 100,–,–,2.3,9.94,1.45,1.95,0.474,1.53,2.27,0.752,2.24
S=c1[nH]nc(Cc2ccccc2)c(=S)[nH]1,–,> 100,> 100,–,> 21.3,> 100,> 100,> 100 µM,> 71.8,> 100,> 100,–,> 100,–,–,–,–,–,–,–
